These are literature values, as cited in patent US6403864B1, “Precursor polypeptide of a plant growth factor, a gene encoding a precursor polypeptide of a plant growth factor and a method for promotion of plant growth” (Nagoya University, priority 1999, dated 2002).

This series concerns plant cell. To be noted: compared with PSK-α.

Where no end group is shown, it is not given here. [ ]: non-standard residue; d: D form. sY = N[C@@H](Cc1ccc(OS(=O)(=O)O)cc1)C(=O)O

In the case of [sY]I[sY]T [PSK-β], the “Cell proliferation activity relative to PSK-α” value is recorded as “less than one-tenth”.
